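Protocol summary: plate cells (96-well), add compound at 5 concentrations, incubate 48 h, interpolate endpoints linearly. Definition used: TGI = concentration required for complete inhibition of growth.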
Columns and labels:
Experiment in all cases: growth of human tumour cells (NCI), 48 h
UACC-62 melanoma = system: UACC-62 melanoma
KM12 colon = system: KM12 colon
A549 NSCLC = system: A549 NSCLC
SF-539 CNS = system: SF-539 CNS
HL-60(TB) leukemia = system: HL-60(TB) leukemia
MDA-N = system: MDA-N
SK-MEL-2 melanoma = system: SK-MEL-2 melanoma
786-0 renal = system: 786-0 renal
SF-268 CNS = system: SF-268 CNS
K-562 leukemia = system: K-562 leukemia
SNB-75 CNS = system: SNB-75 CNS
PC-3 prostate = system: PC-3 prostate
HS 578T breast = system: HS 578T breast
CCRF-CEM leukemia = system: CCRF-CEM leukemia
HOP-62 NSCLC = system: HOP-62 NSCLC
SW-620 colon = system: SW-620 colon
OVCAR-4 ovarian = system: OVCAR-4 ovarian
M14 melanoma = system: M14 melanoma
NCI/ADR-RES ovarian = system: NCI/ADR-RES ovarian
U251 CNS = system: U251 CNS
NCI-H522 lung = system: NCI-H522 lung
HCT-15 colon = system: HCT-15 colon
NCI-H460 lung = system: NCI-H460 lung
UO-31 renal = system: UO-31 renal
HOP-92 NSCLC = system: HOP-92 NSCLC
MALME-3M melanoma = system: MALME-3M melanoma
MCF7 breast = system: MCF7 breast
OVCAR-5 ovarian = system: OVCAR-5 ovarian
T-47D breast = system: T-47D breast
HCT-116 colon = system: HCT-116 colon
COLO 205 colon = system: COLO 205 colon
OVCAR-8 ovarian = system: OVCAR-8 ovarian
TK-10 renal = system: TK-10 renal
HCC-2998 colon = system: HCC-2998 colon
SK-MEL-5 melanoma = system: SK-MEL-5 melanoma
MOLT-4 leukemia = system: MOLT-4 leukemia
SK-OV-3 ovarian = system: SK-OV-3 ovarian
SF-295 CNS = system: SF-295 CNS
RPMI-8226 leukemia = system: RPMI-8226 leukemia
MDA-MB-231 breast = system: MDA-MB-231 breast
CAKI-1 renal = system: CAKI-1 renal
ACHN renal = system: ACHN renal
MDA-MB-435 = system: MDA-MB-435
SN12C renal = system: SN12C renal
A498 renal = system: A498 renal
OVCAR-3 ovarian = system: OVCAR-3 ovarian
SK-MEL-28 melanoma = system: SK-MEL-28 melanoma
BT-549 breast = system: BT-549 breast
RXF 393 renal = system: RXF 393 renal
HT29 colon = system: HT29 colon
IGROV1 ovarian = system: IGROV1 ovarian
UACC-257 melanoma = system: UACC-257 melanoma
DU-145 prostate = system: DU-145 prostate
LOX IMVI melanoma = system: LOX IMVI melanoma
SNB-19 CNS = system: SNB-19 CNS
EKVX NSCLC = system: EKVX NSCLC
NCI-H23 lung = system: NCI-H23 lung

CCOC(=O)C1=C(C)NC(C)=C(C(=O)OCC)C1c1ccc(Cl)cc1
TGI (UACC-62 melanoma): 26.7 µM
TGI (KM12 colon): 40.4 µM
TGI (A549 NSCLC): 34.3 µM
TGI (SF-539 CNS): 37.3 µM
TGI (HL-60(TB) leukemia): 8.15 µM
TGI (MDA-N): 26.9 µM
TGI (SK-MEL-2 melanoma): 34.5 µM
TGI (786-0 renal): 26.5 µM
TGI (SF-268 CNS): 34.6 µM
TGI (K-562 leukemia): 44.6 µM
TGI (SNB-75 CNS): 33.5 µM
TGI (PC-3 prostate): 33.9 µM
TGI (HS 578T breast): 42.2 µM
TGI (CCRF-CEM leukemia): 28.3 µM
TGI (HOP-62 NSCLC): 30.8 µM
TGI (SW-620 colon): 36.2 µM
TGI (OVCAR-4 ovarian): 26.9 µM
TGI (M14 melanoma): 31 µM
TGI (NCI/ADR-RES ovarian): 48.1 µM
TGI (U251 CNS): 34.6 µM
TGI (NCI-H522 lung): 32.2 µM
TGI (HCT-15 colon): 41.6 µM
TGI (NCI-H460 lung): 19.9 µM
TGI (UO-31 renal): 36.4 µM
TGI (HOP-92 NSCLC): 24 µM
TGI (MALME-3M melanoma): 34.6 µM
TGI (MCF7 breast): 38.7 µM
TGI (OVCAR-5 ovarian): 27 µM
TGI (T-47D breast): 35.2 µM
TGI (HCT-116 colon): 22 µM
TGI (COLO 205 colon): 32.4 µM
TGI (OVCAR-8 ovarian): 41.4 µM
TGI (TK-10 renal): 29.2 µM
TGI (HCC-2998 colon): 30.4 µM
TGI (SK-MEL-5 melanoma): 28.1 µM
TGI (MOLT-4 leukemia): 24.8 µM
TGI (SK-OV-3 ovarian): 31.7 µM
TGI (SF-295 CNS): 26.3 µM
TGI (RPMI-8226 leukemia): 52.8 µM
TGI (MDA-MB-231 breast): 33.6 µM
TGI (CAKI-1 renal): 30.7 µM
TGI (ACHN renal): 30.8 µM
TGI (MDA-MB-435): 28.9 µM
TGI (SN12C renal): 34.5 µM
TGI (A498 renal): 31.2 µM
TGI (OVCAR-3 ovarian): 30.5 µM
TGI (SK-MEL-28 melanoma): 37 µM
TGI (BT-549 breast): 32.7 µM
TGI (RXF 393 renal): 28.3 µM
TGI (HT29 colon): 24.8 µM
TGI (IGROV1 ovarian): 30.9 µM
TGI (UACC-257 melanoma): 27.4 µM
TGI (DU-145 prostate): 31.9 µM
TGI (LOX IMVI melanoma): 34.4 µM
TGI (SNB-19 CNS): 31.3 µM
TGI (EKVX NSCLC): 31.3 µM
TGI (NCI-H23 lung): 32.1 µM

CC1(C)Cc2c(c3ccccc3c3nc4c(nc23)c2c(c3ccccc34)OC(C)(C)C2)O1
TGI (UACC-62 melanoma): > 100 µM
TGI (KM12 colon): > 100 µM
TGI (A549 NSCLC): > 100 µM
TGI (SF-539 CNS): > 100 µM
TGI (HL-60(TB) leukemia): > 100 µM
TGI (MDA-N): > 100 µM
TGI (SK-MEL-2 melanoma): > 100 µM
TGI (786-0 renal): > 100 µM
TGI (SF-268 CNS): > 100 µM
TGI (PC-3 prostate): > 100 µM
TGI (HS 578T breast): > 100 µM
TGI (CCRF-CEM leukemia): > 100 µM
TGI (HOP-62 NSCLC): > 100 µM
TGI (SW-620 colon): > 100 µM
TGI (OVCAR-4 ovarian): > 100 µM
TGI (M14 melanoma): > 100 µM
TGI (NCI/ADR-RES ovarian): > 100 µM
TGI (U251 CNS): > 100 µM
TGI (NCI-H522 lung): > 100 µM
TGI (HCT-15 colon): > 100 µM
TGI (NCI-H460 lung): > 100 µM
TGI (HOP-92 NSCLC): > 100 µM
TGI (MALME-3M melanoma): > 100 µM
TGI (MCF7 breast): > 100 µM
TGI (OVCAR-5 ovarian): > 100 µM
TGI (T-47D breast): > 100 µM
TGI (HCT-116 colon): > 100 µM
TGI (COLO 205 colon): > 100 µM
TGI (OVCAR-8 ovarian): > 100 µM
TGI (TK-10 renal): > 100 µM
TGI (HCC-2998 colon): > 100 µM
TGI (SK-MEL-5 melanoma): > 100 µM
TGI (MOLT-4 leukemia): > 100 µM
TGI (SK-OV-3 ovarian): > 100 µM
TGI (SF-295 CNS): > 100 µM
TGI (RPMI-8226 leukemia): > 100 µM
TGI (MDA-MB-231 breast): > 100 µM
TGI (CAKI-1 renal): > 100 µM
TGI (ACHN renal): > 100 µM
TGI (MDA-MB-435): > 100 µM
TGI (SN12C renal): > 100 µM
TGI (A498 renal): > 100 µM
TGI (OVCAR-3 ovarian): > 100 µM
TGI (SK-MEL-28 melanoma): > 100 µM
TGI (BT-549 breast): > 100 µM
TGI (RXF 393 renal): > 100 µM
TGI (HT29 colon): > 100 µM
TGI (IGROV1 ovarian): > 100 µM
TGI (UACC-257 melanoma): > 100 µM
TGI (DU-145 prostate): > 100 µM
TGI (LOX IMVI melanoma): > 100 µM
TGI (SNB-19 CNS): > 100 µM
TGI (EKVX NSCLC): > 100 µM
TGI (NCI-H23 lung): > 100 µM

Source: PubChem BioAssay (NCI)
